From US12516056B2, “Compounds for inhibition of janus kinase 1” (MANKIND PHARMA LTD., priority 2019, dated 2026) come the findings set out here.

Read-outs that look alike come from different tables or passages of the source.

One assay addresses T1, Recombinant JAK1 (Homo sapiens, UniProt P23458).
T1 construct: purchased Carna Biosciences
The assay can be described thus: JAK biochemical assay (LANCE Ultra TR-FRET), JAK1. An outline of the steps: (§1)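 % inhibition relative to vehicle was derived from TR-FRET signal proportional to ULight-substrate phosphorylation. Reactions used recombinant kinase in HEPES pH 7.5 buffer containing EGTA, MgCl2, DTT and Tween-20.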
(TR-FRET usually uses a lanthanide donor and a delayed reading to cut background.)

The next assay has as its target T2, Recombinant TYK2 (Homo sapiens, UniProt P29597).
T2 construct: purchased Carna Biosciences
The assay can be described thus: JAK biochemical assay (LANCE Ultra TR-FRET), TYK2. An outline of the steps: as §1

In assay [1] the test system is IFN-γ production in NK 92 cells by IL-12. Nature of the assay: IFN-γ production in NK 92 cells by IL-12 (ELISA). To be noted: NK92, IFN-γ detection from cell supernatants, read-out: Cell based IC50 (μM) NK-92/IL-12*. How it is done:
NK 92 cells were cultured in medium without IL-2 for overnight. Next day, 5000 cells per well NK 92 cells were seeded in a 96 well plate. Compounds were added to cells and incubated for 1 hour. Later IL-12, 10 U/ml was added to cells and incubated for overnight. Supernatant was collected from the wells and IFN-7 secretion was measured by using human IFN-7 ELISA kit. Absorbance was measured at 450 nm in BMG FLUOstar. Background signal obtained from cells which were not activated with cytokines, was subtracted from vehicle controls and compound treated wells.
(In general: ELISA stands for enzyme-linked immunosorbent assay.)

Assay [2] relates to collagen induced mouse arthritis model. The assay can be described thus: Mouse model of rheumatoid arthritis (collagen induced arthritis). In kind it is in vivo. To be noted: orally dosed, QD for 21 days; reference filgotinib. The text has this:
Rheumatoid arthritis (RA) is an autoimmune disease that can cause joint pain and damage throughout the body. Several cytokines such as IL-6 and IFN-γ activate the Janus kinase/signal transducers and activators of transcription (JAK/STAT) pathway. Inhibition of JAK/STAT pathway is considered as one of the therapeutic options for treatment of rheumatoid arthritis. Rodent models of arthritis can be used to evaluate the therapeutic potential of compounds dosed preventatively or therapeutically. These models include but are not limited to mouse or rat collagen-induced arthritis, rat adjuvant-induced arthritis, and collagen antibody-induced arthritis.
Compounds described herein are tested for JAK/STAT pathway inhibition driven efficacy in collagen induced mouse arthritis model. Compounds were orally dosed, QD for 21 days and at the end of the study, clinical symptoms, body weight and histopathology of ankle and paws were measured. Arthritis score was calculated for the compounds as well as reference standard, filgotinib.

Assay [3] deals with oxazolone induced colitis. Nature of the assay: Murine model of oxazolone induced colitis. It counts as in vivo, Male BALB/c mice. The following applies: 30 mpk, PO, BID.
[4] abbreviates: read-out: Biochemical IC50 (nM) JAK1.
Setting [5] is: recombinant JAK1, TR-FRET, read-out: Biochemical Assay (μM) JAK1.
Where [6] appears, read: read-out: Biochemical IC50 (nM) TYK2.
[7] abbreviates: recombinant TYK2, TR-FRET, read-out: Biochemical Assay (μM) TYK2.

T1 sequence (P23458 whole entry): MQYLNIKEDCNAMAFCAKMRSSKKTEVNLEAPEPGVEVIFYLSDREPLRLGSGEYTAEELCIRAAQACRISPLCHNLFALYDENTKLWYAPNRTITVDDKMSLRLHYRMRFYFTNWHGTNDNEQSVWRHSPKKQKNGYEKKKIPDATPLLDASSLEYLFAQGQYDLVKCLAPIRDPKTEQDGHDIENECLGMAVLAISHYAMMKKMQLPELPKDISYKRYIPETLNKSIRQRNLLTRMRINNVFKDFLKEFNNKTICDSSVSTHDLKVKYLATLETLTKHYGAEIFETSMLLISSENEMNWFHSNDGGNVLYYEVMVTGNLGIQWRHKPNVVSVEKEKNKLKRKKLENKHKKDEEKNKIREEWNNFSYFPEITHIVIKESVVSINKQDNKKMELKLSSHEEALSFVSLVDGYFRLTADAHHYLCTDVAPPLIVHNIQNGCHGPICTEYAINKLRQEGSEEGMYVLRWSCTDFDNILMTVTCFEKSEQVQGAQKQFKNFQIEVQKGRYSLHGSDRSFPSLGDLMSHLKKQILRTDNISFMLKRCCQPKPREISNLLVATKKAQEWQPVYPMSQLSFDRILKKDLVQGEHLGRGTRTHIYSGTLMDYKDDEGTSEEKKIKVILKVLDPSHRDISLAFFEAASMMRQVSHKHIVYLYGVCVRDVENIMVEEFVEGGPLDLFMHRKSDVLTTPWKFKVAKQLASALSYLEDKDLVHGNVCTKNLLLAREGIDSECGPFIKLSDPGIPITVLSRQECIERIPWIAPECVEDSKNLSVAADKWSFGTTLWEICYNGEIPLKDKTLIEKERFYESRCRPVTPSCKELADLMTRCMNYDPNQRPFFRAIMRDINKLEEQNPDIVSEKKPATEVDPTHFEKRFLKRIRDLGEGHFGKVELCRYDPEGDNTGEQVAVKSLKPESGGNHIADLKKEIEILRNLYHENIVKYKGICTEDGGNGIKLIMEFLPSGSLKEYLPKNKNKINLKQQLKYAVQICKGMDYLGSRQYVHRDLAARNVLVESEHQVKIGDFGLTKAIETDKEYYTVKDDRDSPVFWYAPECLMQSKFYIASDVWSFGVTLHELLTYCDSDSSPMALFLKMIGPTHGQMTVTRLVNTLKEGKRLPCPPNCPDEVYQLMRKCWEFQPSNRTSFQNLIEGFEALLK
T2 sequence (P29597 whole entry): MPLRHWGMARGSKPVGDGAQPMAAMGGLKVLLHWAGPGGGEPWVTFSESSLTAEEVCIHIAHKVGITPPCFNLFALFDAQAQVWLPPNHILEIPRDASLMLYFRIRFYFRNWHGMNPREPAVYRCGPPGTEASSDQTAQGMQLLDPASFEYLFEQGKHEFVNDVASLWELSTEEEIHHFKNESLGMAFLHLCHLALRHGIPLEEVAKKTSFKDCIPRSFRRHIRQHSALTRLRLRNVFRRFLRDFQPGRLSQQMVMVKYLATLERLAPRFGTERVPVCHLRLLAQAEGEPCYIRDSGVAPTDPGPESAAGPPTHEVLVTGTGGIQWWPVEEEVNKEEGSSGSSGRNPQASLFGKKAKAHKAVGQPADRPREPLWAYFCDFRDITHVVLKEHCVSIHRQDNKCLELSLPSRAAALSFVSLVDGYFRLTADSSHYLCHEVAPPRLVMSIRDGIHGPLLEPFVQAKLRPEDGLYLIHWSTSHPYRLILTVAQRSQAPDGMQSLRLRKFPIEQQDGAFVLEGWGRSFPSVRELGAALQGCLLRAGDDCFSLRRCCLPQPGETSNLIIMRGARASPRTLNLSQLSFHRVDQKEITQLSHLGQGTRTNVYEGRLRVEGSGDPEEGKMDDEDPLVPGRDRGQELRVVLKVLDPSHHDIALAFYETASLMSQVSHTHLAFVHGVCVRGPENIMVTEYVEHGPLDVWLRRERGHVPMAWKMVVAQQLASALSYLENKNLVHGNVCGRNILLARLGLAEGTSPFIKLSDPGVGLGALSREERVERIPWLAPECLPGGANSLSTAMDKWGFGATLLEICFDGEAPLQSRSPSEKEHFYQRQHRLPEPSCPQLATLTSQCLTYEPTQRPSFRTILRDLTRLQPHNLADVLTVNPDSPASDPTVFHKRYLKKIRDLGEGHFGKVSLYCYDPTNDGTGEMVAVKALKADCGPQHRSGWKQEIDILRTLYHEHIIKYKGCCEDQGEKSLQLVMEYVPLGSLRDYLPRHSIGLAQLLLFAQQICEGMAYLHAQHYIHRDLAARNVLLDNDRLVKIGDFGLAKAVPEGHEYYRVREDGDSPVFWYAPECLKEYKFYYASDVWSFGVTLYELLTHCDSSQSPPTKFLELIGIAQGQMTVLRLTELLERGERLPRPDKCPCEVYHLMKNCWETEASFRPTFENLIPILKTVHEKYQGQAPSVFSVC

Regarding `CC(C)NC(=O)CC[C@@H](c1ccc(-n2cc(-c3ccnc4[nH]cnc34)cn2)nc1)C(F)(F)F` [Example 1215, (S)-4-(6-(4-(3H-imidazo[4,5-b]pyridin-7-yl)-1H-pyrazol-1-yl)pyridin-3-yl)-5,5,5-trifluoro-N-isopropylpentanamide], the IC50 is 0.5 nM on Recombinant JAK1 (setting [4]); under 100 nM on Recombinant JAK1 (setting [5]); over 100 nM at Recombinant TYK2 (setting [6]); over 1000 nM on Recombinant TYK2 (setting [7]); over 10 µM in assay [1]. Further, the “efficacy (arthritis score) in collagen induced mouse arthritis model” value in assay [2] is on record as “very good efficacy”. Moreover, the “efficacy in comparison to Filgotinib (colitis model)” value in assay [3] is on record as “better efficacy”.
Regarding `CN1CCC(C(O)(c2ccc(-n3cc(-c4ccnc5[nH]cnc45)cn3)nc2)C(F)(F)F)CC1` (stereo not shown) [Example 1133, 1-(6-(4-(3H-imidazo[4,5-b]pyridin-7-yl)-1H-pyrazol-1-yl)pyridin-3-yl)-2,2,2-trifluoro-1-(1-methylpiperidin-4-yl)ethanol], the IC50 was 8 nM at Recombinant JAK1 (setting [4]); under 100 nM on Recombinant JAK1 (setting [5]); 850 nM at Recombinant TYK2 (setting [6]); over 1000 nM on Recombinant TYK2 (setting [7]); over 10 µM in assay [1]. The “efficacy (arthritis score) in collagen induced mouse arthritis model” value in assay [2] was “very good efficacy”.
